Test results from ChEMBL document CHEMBL1201862, “PubChem BioAssay data set” (2004).
Activity calls are given as the source filed them.

Assays:
Exodeoxyribonuclease V = target: T1, Exodeoxyribonuclease V (Escherichia coli (strain K12), UniProt P04993+P07648+P08394); assay: RecBCD inhibition via phage-restricted bacterial growth – absorbance, V66 E. coli, mutant T4 phage, counter-screen for AddAB inhibitor project, dose response (AID 492957); type: functional, cell-based, Escherichia coli str. K-12 substr. MG1655
T1 sequence (P04993 whole entry): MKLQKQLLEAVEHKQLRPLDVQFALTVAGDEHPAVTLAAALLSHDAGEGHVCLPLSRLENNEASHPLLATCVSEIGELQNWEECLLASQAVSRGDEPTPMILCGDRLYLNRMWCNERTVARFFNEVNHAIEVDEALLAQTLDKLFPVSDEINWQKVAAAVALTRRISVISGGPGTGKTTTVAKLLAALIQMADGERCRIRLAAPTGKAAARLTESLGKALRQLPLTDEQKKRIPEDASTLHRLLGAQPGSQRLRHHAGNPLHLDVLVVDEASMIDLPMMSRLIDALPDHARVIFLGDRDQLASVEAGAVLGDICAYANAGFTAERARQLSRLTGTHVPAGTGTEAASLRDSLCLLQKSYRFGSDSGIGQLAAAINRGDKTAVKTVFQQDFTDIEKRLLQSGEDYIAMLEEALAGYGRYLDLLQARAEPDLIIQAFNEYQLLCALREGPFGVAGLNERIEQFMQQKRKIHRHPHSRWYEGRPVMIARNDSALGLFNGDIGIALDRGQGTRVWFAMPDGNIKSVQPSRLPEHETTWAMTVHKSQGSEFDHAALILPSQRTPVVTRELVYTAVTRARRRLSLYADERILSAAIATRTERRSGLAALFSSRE
T1 sequence (P07648 whole entry): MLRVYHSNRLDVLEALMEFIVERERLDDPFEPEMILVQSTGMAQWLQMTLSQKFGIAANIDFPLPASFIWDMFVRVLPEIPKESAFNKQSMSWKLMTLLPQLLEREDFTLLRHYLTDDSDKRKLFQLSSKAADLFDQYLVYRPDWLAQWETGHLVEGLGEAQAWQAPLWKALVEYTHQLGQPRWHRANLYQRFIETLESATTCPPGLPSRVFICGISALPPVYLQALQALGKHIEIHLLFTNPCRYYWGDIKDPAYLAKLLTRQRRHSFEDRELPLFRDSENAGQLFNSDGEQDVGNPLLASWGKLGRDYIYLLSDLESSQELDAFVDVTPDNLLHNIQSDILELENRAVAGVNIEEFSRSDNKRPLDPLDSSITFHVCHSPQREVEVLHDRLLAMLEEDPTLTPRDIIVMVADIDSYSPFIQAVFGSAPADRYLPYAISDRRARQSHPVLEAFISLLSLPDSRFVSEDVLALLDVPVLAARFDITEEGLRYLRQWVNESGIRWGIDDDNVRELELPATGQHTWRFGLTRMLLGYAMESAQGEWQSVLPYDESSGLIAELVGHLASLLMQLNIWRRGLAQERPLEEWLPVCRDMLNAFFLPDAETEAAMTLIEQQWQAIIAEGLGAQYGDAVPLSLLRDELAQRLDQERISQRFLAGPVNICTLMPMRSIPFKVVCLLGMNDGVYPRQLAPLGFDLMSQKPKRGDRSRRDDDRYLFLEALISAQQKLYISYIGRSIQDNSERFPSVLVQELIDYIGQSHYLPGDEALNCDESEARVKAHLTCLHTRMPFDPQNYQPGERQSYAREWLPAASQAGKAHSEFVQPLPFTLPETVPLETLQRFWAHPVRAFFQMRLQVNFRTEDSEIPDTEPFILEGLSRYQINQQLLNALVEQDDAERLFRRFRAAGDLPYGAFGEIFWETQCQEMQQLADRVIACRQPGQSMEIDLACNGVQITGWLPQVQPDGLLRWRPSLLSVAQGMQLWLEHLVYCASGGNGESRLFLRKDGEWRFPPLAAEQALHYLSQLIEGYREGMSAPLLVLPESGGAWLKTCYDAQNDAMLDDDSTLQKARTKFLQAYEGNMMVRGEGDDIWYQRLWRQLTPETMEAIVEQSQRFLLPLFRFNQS
T1 sequence (P08394 whole entry): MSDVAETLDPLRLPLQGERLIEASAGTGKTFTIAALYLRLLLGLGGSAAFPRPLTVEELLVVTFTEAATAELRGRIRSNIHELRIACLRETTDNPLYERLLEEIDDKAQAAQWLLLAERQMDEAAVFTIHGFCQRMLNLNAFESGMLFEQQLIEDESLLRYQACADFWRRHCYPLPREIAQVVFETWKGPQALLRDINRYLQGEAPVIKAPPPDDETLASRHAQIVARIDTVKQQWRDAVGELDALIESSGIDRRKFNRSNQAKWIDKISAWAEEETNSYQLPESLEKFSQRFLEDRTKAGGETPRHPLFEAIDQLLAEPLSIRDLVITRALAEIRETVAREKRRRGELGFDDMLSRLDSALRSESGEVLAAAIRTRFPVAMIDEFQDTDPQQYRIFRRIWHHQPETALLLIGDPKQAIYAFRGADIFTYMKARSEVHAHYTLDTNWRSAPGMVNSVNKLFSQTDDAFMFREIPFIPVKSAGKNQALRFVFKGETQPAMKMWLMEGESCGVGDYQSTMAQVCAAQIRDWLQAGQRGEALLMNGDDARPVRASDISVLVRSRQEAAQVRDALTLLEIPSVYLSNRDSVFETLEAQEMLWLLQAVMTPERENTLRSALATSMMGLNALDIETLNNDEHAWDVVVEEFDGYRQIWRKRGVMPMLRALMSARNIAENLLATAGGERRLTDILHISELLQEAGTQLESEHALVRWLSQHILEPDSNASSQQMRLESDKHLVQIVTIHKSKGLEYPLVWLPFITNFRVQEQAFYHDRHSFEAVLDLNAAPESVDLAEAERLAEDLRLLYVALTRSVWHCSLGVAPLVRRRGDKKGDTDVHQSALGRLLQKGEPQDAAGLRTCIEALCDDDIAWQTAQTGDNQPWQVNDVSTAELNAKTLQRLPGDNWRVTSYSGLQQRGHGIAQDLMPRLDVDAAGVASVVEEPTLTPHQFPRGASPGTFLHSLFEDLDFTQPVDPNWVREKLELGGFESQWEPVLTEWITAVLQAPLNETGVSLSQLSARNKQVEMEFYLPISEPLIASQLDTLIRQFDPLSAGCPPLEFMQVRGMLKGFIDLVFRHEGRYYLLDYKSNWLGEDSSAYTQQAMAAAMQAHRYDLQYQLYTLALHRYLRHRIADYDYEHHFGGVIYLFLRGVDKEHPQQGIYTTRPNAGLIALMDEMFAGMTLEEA

[1] = THP-1 cell cytotoxicity, dose response, cytotoxicity control for non-replicating M. tuberculosis project (AID 489025); type: functional
[2] = NIH3T3 cell viability loss – ATP luminescence, mouse fibroblasts, counter-screen, dose response (AID 2010); type: functional, cell-based;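 note: cells exposed to compound for about 90 hours before reading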
cells = type: functional

## O=C(CC(O)(C(F)(F)F)C(F)(F)F)Nc1ccc(Cl)c(Cl)c1
Exodeoxyribonuclease V
  IC50: 44 µM (inactive)

## O=C(CNc1cccc2ccccc12)N/N=C/c1ccc([N+](=O)[O-])o1
[1]
  CC50: 16.8 µM (active)
Exodeoxyribonuclease V
  IC50: > 118 µM (inactive)
[2]
  EC50: > 60 µM (not active)
cells
  IC50: 3.24 µM (active)

## Cc1ccc(NC(=O)C2=C(c3ccccc3)S(=O)(=O)CCS2(=O)=O)cc1
[1]
  CC50: 19.4 µM (active)
[2]
  EC50: 2.48 µM (active)
cells
  IC50: 38.3 µM (active)
